According to US11026954B2, “3-beta-hydroxy-5-alpha-pregnan-20-one for use in medical treatment” (ASARINA PHARMA AB, priority 2017, dated 2021):

Experiments:
[1] = biological target: T1, human alpha1,beta2,gamma2 GABAA receptor (Homo sapiens, UniProt P14867+P47870); assay: Patch-clamp (Dynaflow) on HEK-293 cells expressing GABAA receptor alpha1,beta2,gamma2; type: cell-based; details: for effect by itself (Baseline shift): absence of GABA
T1 construct: expressed in transfected cells
Description: (§1) Assay for Testing GABAA Receptor Effects of 3Beta-Hydroxy-5Alpha-Pregnan-20-One on Human Alpha1,Beta,Gamma and Alpha4,Beta,Delta GABAA Receptor Subtype.
(§2) 2) in absence and in presence of the positive GABAA receptor modulating steroids Tetrahydrodeoxycorticosterone (THDOC) and 3alpha-hydroxy-5alpha-androstan-17-ol (3alpha-OH-adiol) by the Dynaflow™ system on HEK-293 cells. In these tests the protocol was optimized to be similar to the physiological conditions in the synaptic cleft.
(§3) HEK-293 cells, permanently transfected with the human alpha1,beta,gamma and alpha4,beta,delta GABAA receptor subtypes, were seeded at a density of 3×10^4/25 cm^2 in cellbind culture flask. The transfected cells were used for patch-clamp experiments 3 days after seeding. When using the cells for patch-clamp experiments the cells were washed twice with oxygen-bubbled extracellular (EC) solution (see below). About 5 mL EC was then added and the cells were kept in the incubator for about 15 minutes. After 15 minutes the cells came loose from the bottom of the flask and were separated by carefully sucking couple of times with a Pasteur pipette.
(§4) Dynaflow™ system with Resolve chip was used for patch-clamp experiments: The electrophysiological recordings from HEK-293 cells were performed under voltage-clamp conditions using patch-clamp technique and the Dynaflow™ system (Dynaflow Pro II Platform Zeiss Axiovert 25; Cellectricon AB, Sweden) with Resolve chips as application system.
(§5) Patch pipettes were pulled from borosilicate glass and polished to a resistance 2-5 MΩ when filled with suitable intracellular solution (IC) (pH was adjusted to 7.2) and immersed in bath solution (extracellular, EC) (pH is adjusted to 7.4). The recordings were made using an Axopatch 200B amplifier, a Digidata 1322A (Axon instruments, Foster city, USA). Data were acquired using the pCLAMP software sampled at 10 kHz, filtered at 2-10 kHz and analyzed with Clampfit (versions 9.0, both from Axon instruments, Foster city, USA). No higher series resistance than 20 MΩ between pipette and cell membrane was accepted. No series resistance compensation was used. The stability of series resistance was monitored repeatedly from the time course of capacitative transients during the experiments. The measured liquid-junction potential between EC and IC was subtracted in all data presented. All experiments were performed at room temperature (21-23° C.).
(§6) All steroids were dissolved to the concentration of 6 mM in DMSO. […] End solutions were the solutions added into the wells of the chip.
(§7) After compensating for the liquid junction potential a steady holding potential of −17 mV was used in all experiments. […] By using the holding potential of −17 mV and the intracellular solution with low chloride ion concentration the chloride ions flux into the cell when the receptors were activated.
(§8) The Dynaflow system allowed application of solutions for as short as 40 ms up to minutes in time.
(§9) In the experiments, THDOC and 3alpha-OH-adiol were used as the positive GABAA receptor modulating steroids.
(§10) Different incubation times were studied to achieve the optimal time for attain stable results and minimize the washout time.
(§11) Cell lines permanently expressing a functional human GABAA receptor was made in following steps. The GABAA receptor subunits alpha1, beta2 and gamma2L or alpha4, beta3 and delta including introduced Kozac sequences just before the start codons, were subcloned into mammalian expression vectors containing Geneticin, Hygromycin B, and Zeocin resistance, respectively.

[2] = biological target: T2, human alpha4,beta3,delta GABAA receptor (Homo sapiens, UniProt P28472+P48169); assay: Patch-clamp (Dynaflow) on HEK-293 cells expressing GABAA receptor alpha4,beta3,delta; type: cell-based
T2 construct: expressed in transfected cells
Description: as §1, §2, §3, §4, §5, §6, §7, §8, §9, §10, §11

[3] = 1 μM 3beta-hydroxy-5alpha-pregnan-20-one

T2 sequence (P48169 36-554): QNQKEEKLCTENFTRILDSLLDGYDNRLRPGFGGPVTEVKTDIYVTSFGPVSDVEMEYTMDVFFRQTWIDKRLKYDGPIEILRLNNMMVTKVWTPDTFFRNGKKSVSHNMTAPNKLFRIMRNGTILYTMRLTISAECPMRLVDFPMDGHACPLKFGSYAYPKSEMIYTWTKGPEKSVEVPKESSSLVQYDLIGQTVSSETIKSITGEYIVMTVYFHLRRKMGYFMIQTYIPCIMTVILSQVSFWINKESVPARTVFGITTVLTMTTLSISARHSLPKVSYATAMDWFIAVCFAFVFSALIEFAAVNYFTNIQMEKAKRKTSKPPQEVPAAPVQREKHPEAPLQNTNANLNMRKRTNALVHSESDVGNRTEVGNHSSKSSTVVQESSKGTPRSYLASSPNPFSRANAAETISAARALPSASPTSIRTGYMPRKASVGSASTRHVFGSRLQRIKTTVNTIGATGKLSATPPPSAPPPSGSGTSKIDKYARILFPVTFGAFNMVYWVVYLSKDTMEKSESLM
T2 sequence (P28472 26-473): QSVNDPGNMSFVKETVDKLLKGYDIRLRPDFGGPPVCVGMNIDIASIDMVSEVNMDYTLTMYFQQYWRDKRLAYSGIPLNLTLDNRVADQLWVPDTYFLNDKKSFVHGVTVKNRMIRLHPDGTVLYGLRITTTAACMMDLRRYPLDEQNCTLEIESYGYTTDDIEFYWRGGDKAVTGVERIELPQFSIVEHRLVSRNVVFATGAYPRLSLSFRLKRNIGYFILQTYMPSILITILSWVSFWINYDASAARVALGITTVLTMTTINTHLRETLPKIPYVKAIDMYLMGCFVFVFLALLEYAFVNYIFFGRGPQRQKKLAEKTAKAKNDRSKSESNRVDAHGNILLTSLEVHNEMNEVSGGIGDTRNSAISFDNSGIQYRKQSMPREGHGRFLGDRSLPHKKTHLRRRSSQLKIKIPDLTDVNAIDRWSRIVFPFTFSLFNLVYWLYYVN
T2 sequence (O14764 17-452 partner limits assumed): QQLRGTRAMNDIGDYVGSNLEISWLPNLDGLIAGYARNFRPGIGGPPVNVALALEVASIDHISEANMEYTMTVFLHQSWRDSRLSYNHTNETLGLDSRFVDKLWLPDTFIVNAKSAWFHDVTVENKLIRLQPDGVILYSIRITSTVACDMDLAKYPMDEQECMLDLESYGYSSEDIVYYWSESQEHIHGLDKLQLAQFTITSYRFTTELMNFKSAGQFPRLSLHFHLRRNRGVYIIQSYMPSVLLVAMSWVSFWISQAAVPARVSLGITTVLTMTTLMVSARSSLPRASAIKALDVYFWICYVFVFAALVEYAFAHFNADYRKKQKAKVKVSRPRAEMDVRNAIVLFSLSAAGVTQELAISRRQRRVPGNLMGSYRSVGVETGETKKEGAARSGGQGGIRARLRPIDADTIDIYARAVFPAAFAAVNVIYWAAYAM
T1 sequence (P14867 28-456): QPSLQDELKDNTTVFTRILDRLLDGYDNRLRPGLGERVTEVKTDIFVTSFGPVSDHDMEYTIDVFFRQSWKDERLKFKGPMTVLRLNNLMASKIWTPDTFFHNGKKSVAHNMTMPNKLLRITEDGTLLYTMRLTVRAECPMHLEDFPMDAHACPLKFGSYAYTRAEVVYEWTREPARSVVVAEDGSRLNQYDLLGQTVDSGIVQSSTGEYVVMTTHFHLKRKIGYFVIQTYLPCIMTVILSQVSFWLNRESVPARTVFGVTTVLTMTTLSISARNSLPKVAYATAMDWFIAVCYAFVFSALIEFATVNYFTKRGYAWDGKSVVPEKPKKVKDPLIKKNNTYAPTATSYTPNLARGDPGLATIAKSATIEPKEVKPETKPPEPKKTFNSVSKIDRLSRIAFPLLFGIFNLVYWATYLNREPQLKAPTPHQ
T1 sequence (P47870 25-512 limits assumed): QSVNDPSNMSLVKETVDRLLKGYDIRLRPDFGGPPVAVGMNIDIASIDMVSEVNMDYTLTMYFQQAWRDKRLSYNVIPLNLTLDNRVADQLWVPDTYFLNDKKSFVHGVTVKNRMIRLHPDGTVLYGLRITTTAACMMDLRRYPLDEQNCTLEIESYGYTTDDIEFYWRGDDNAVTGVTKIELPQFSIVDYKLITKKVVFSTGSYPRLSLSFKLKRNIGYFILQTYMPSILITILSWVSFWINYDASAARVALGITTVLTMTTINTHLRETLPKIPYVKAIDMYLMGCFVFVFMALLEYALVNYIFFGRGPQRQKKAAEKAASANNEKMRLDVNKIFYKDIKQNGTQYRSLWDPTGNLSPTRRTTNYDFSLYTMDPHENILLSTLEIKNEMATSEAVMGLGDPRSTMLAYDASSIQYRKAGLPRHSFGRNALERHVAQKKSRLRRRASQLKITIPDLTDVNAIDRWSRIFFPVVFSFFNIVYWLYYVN
T1 sequence (P18507 40-475 partner): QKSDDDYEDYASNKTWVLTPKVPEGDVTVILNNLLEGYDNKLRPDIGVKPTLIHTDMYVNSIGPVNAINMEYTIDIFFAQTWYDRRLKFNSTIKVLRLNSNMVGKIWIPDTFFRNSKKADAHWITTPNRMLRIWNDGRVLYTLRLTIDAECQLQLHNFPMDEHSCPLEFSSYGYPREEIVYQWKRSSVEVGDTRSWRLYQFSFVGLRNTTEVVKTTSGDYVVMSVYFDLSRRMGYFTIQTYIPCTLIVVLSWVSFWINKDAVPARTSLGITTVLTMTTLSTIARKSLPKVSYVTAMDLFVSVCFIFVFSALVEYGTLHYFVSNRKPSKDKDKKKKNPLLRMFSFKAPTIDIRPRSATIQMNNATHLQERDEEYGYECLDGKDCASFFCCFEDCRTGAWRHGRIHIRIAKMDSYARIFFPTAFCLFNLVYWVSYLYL

Question: What does the source list for `CC(=O)[C@H]1CC[C@H]2[C@@H]3CC[C@H]4C[C@@H](O)CC[C@]4(C)[C@H]3CC[C@]12C` [3beta-hydroxy-5alpha-pregnan-20-one]?
Answer: Antagonism of THDOC enhanced GABA effect (max, concentration-dependent experiment) ([1]; 1 μM 3beta-hydroxy-5alpha-pregnan-20-one + 30 μM GABA + 200 nM THDOC, n=10): −21±4.6%; Effect on 8 μM Androstandiol + 30 μM GABA ([1]; 1 μM 3beta-hydroxy-5alpha-pregnan-20-one, phasic effect): −30 ± 1.7%; Effect on 8 μM Androstandiol, baseline shift ([1]; 1 μM 3beta-hydroxy-5alpha-pregnan-20-one, tonic effect, without GABA): −33 ± 7.6%; Imax, antagonism of THDOC effect ([1]; 0.1-1 μM 3beta-hydroxy-5alpha-pregnan-20-one + 30 μM GABA + 200 nM THDOC): −21%; Antagonism of THDOC enhanced GABA effect (single dose) ([1]; single dose 1 μM + 30 μM GABA + 200 nM THDOC, n=6): −22.3±5.3%; Effect on 0.6 μM Androstandiol + 3 μM GABA [2, 3]: −18 ± 2.0%; Effect on 0.8 μM Androstandiol + 3 μM GABA [2, 3]: −22 ± 2.6%; Effect by itself (current response) ([2]; 1 μM 3beta-hydroxy-5alpha-pregnan-20-one alone, N=11, NS vs EC solution): −0.4±0.3 pA; Effect on 3 μM GABA response ([2]; 1 μM 3beta-hydroxy-5alpha-pregnan-20-one, N=11, NS): −6.7 ± 3.3%; Effect on GABA alone (in words) ([2]; 1 μM 3beta-hydroxy-5alpha-pregnan-20-one, data not shown): without any significant effect; Effect on 0.1 μM THDOC + 3 μM GABA ([2]; 1 μM 3beta-hydroxy-5alpha-pregnan-20-one, steady state): −26 ± 2.4%; Effect on 0.1 μM THDOC alone baseline ([2]; 1 μM 3beta-hydroxy-5alpha-pregnan-20-one, without GABA): −43 ± 3.5%

Question: How did the “Emax, enhancement of GABA mediated current” value ([1]; 0.03-1 μM THDOC + 30 μM GABA) turn out when `C[C@]12CC[C@@H](O)C[C@H]1CC[C@@H]1[C@@H]2CC[C@]2(C)[C@@H](C(=O)CO)CC[C@@H]12` [THDOC, Tetrahydrodeoxycorticosterone] was run?
Answer: +115%

Question: And the EC50 ([1]; read-out: EC50, enhancement of GABA mediated current, 0.03-1 μM THDOC + 30 μM GABA)?
Answer: 70 nM

Question: What about the “Baseline shift (current response in absence of GABA)” value ([2]; 0.03 μM THDOC) of the same compound?
Answer: +5 ± 3.3 pA

Question: And the “Baseline shift (current response in absence of GABA)” value ([2]; 0.1 μM THDOC)?
Answer: +15 ± 9.5 pA

Question: What about the “Baseline shift (current response in absence of GABA)” value ([2]; 0.3 μM THDOC) of the same compound?
Answer: +12 ± 7.9 pA

Question: What about the “Baseline shift (current response in absence of GABA)” value ([2]; 1 μM THDOC) of the same compound?
Answer: +69 ± 35 pA

Question: And the “Emax, enhancement of GABA mediated current response” value ([2]; THDOC + 3 μM GABA)?
Answer: 297%

Question: What about the EC50 ([2]; read-out: EC50, enhancement of GABA mediated current response, THDOC + 3 μM GABA) of the same compound?
Answer: 47 nM

Question: `C[C@]12CC[C@@H](O)C[C@@H]1CC[C@@H]1[C@@H]2CC[C@]2(C)C(O)CC[C@@H]12` (stereo partly drawn) [Androstandiol, 3alpha-hydroxy-5alpha-androstan-17-ol] was tested. Which “effect by itself (Baseline shift)” value ([1]; 3 μM androstandiol) did it give?
Answer: +8 ± 3.6 pA

Question: And the “effect by itself (Baseline shift)” value ([1]; 8 μM androstandiol)?
Answer: +13 ± 2.3 pA

Question: What about the “effect by itself (Baseline shift)” value ([1]; 10 μM androstandiol) of the same compound?
Answer: +11 ± 1.5 pA

Question: What about the “effect by itself (Baseline shift)” value ([1]; 30 μM androstandiol) of the same compound?
Answer: +24 ± 6.8 pA

Question: And the “effect by itself (Baseline shift)” value ([1]; 100 μM androstandiol)?
Answer: +43 ± 5.7 pA

Question: And the “Potency relative to THDOC (less potent)” value ([1]; enhancing the effect of GABA, 30 μM GABA)?
Answer: 48 times

Question: And the “Baseline shift (current response in absence of GABA)” value ([2]; 3 μM androstandiol)?
Answer: +8 ± 3.6 pA

Question: What about the “Baseline shift (current response in absence of GABA)” value ([2]; 10 μM androstandiol) of the same compound?
Answer: +13 ± 4.8 pA

Question: What about the “Potency at alpha4,beta3,delta relative to alpha1,beta2,gamma2 (higher)” value ([2]; enhancement of GABA-mediated current) of the same compound?
Answer: 10 times
